Eight compounds from patent publication US7179817B2, “Carboxylic acid derivatives and drugs containing the same as the active ingredient” (ONO Pharmaceutical Co., Ltd., priority 2001, dated 2007) can be followed below.

Counter-ions that a name gives are not always drawn.

For this assay, the target named is T1, human EDG-1 (Homo sapiens, UniProt P21453).
T1 construct: expressed in transfected cells; host or cells: CHO (Chinese Hamster Ovary) cells, cultured under Blasticidin selection
Kind of assay: Assessment of an agonistic action by monitoring the intracellular calcium ion. It is filed as cell-based. The following applies: human EDG-1 gene over expression CHO cells; Fura2 intracellular Ca2+ increase; Concentration of Half-100 nM S1P Ca2+ release. How it is done: (1) Assessment of an Agonistic Action by Monitoring the Intracellular Calcium Ion
The assessment of an agonistic action for the receptor was carried out using the human EDG-1 gene over expression cells (Chinese Hamster Ovary, CHO). EDG-1 expression cells were cultured with Ham's F12 (GIBCO BRL, No. 11765-047) medium containing 10% FBS, Penicillin/Streptomycin and Blasticidin (5 μg/mL). First, in order to load Fura2-AM (Dojindo, No. 348-05831) in the cells, the cells were incubated by 5 μM Fura2-AM solution (Ham's F12 medium containing 10% FBS, 20 mM HEPES pH7.4, 2.5 mM Probenecid (Sigma, catalog No.P-8761)) at 37° C. for 60 min. Next, the cells were washed once by Hanks solution containing 20 mM HEPES pH7.4, 2.5 mM Probenecid and soaked in the Hanks solution until assay.
The plate was set on the fluorescence drug screening system (Hamamatsu photonics FDSS-2000). After measurement of the background signal for […], the solution of the assay compound was added. The test compounds were added at the final concentration range of between 0.1 nM and 10 μM as the final dimethyl sulfoxide (DMSO) concentration made to 1/1000 of the original solution. Fura2-Ca^2+ fluorescence excited at 340 nm and 380 nm was measured every 3 seconds at emission wavelength 500 nm. Intracellular Ca^2+ concentration was assessed with fluorescent ratio of excitation wavelength 340 nm and 380 nm. Agonistic activity was calculated as below, that is, the control value (A) was obtained by measuring the response of 100 nM S1P (BIOMOL:M9076) after adding DMSO to the well for the test compounds, and (A) was compared with the value (B) which is the difference of fluorescent ratio obtained by measuring response between the pre and post of test compounds added. Rate of intracellular Ca^2+ increase (%) was calculated as following equation. rate of increase (%)=(B/A)×100
Moreover, rate of increase was calculated at each concentration and EC50 (Concentration of Half—100 nM S1P Ca^2+ release) of each compound was calculated setting the maximal concentration of the compound giving the response corresponding to that of S1P at the concentration of 100 nM.
For orientation: A change in cytosolic calcium serves as a functional read-out for many receptors and channels.

T1 sequence (P21453 whole entry): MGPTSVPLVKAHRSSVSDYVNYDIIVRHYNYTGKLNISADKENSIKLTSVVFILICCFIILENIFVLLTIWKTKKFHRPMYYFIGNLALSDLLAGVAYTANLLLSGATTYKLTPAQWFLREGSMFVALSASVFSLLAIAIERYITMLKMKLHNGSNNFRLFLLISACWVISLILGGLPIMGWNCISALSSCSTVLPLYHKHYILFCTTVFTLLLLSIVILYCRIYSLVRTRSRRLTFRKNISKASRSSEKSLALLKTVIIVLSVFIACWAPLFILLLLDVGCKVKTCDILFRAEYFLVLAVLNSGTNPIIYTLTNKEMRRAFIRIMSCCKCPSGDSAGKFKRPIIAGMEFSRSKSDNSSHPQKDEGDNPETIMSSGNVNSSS

For the compound `O=C(NCCc1ccc(OCCCCCc2ccccc2)cc1)c1ccc(Cl)c(C(=O)O)c1` [Example 16, 2-chloro-5-[2-(4-(5-phenylpentyloxy)phenyl)ethylaminocarbonyl]benzoic acid], the EC50 stood at 8.3 nM.
`O=C(O)CCNCCc1ccc(OCCCCCc2ccccc2)cc1` [Example 32, 3-[2-(4-(5-phenylpentyloxy)phenyl)ethylamino]propanoic acid hydrochloride]: the 50% effective concentration (EC50) was found to be 30 nM.
Consider `O=C(CCc1ccc(OCCCCCc2ccccc2)cc1)Nc1ccc(C(=O)O)c(C(=O)O)c1` [Example 2(3), 2-carboxy-5-[3-(4-(5-phenylpentyloxy)phenyl)propanoylamino]benzoic acid], for which the EC50 was 1.4 nM.
On to `O=C(O)CNC(=O)CCc1ccc(CCCCCCc2ccccc2)cc1` [Example 28, 2-[3-(4-(6-phenylhexyl)phenyl)propanoylamino]acetic acid], for which the EC50 amounted to 25 nM.
To `O=C(CCc1ccc(OCCCCCc2ccccc2)cc1)Nc1ccc(Cl)c(C(=O)O)c1` [Example 2(1), 2-chloro-5-[3-(4-(5-phenylpentyloxy)phenyl)propanoylamino]benzoic acid] belongs 9 nM; to `O=C(O)c1cncc(C(=O)NCCc2ccc(OCCCCCc3ccccc3)cc2)c1` [Example 16(3), 5-[2-(4-(5-phenylpentyloxy)phenyl)ethylaminocarbonyl]pyridine-3-carboxylic acid], 4.5 nM; to `O=C(NCCc1ccc(OCCCCCc2ccccc2)cc1)c1ccc(C(=O)O)c(C(=O)O)c1` [Example 19, 2-carboxy-5-[2-(4-(5-phenylpentyloxy)phenyl)ethylaminocarbonyl]benzoic acid], 1.5 nM.
In the case of `O=C(CCc1ccc(OCCCCCc2ccccc2)cc1)Nc1cc(Cl)c(Cl)c(C(=O)O)c1` [Example 9(6), 2,3-dichloro-5-[3-(4-(5-phenylpentyloxy)phenyl)propanoylamino]benzoic acid], the EC50 is 7.3 nM.

In general, EC50 refers to the concentration needed to bring the measured effect to its halfway point.
